Test results as given in US11414387B2, “Oxoacridinyl acetic acid derivatives and methods of use” (Stingthera, Inc., priority 2017, dated 2022).

How the values were obtained:
[1] = target: mSTING-CTD (Mus musculus (Mouse), UniProt Q3TBT3); experiment: Mouse STING protein FP competition concentration response assay; format: binding
Description: (§1) A validated STING ligand, such as c-di-GMP, which is labeled with a read-out signal (e.g., a fluorescence signal such as fluorescein), is mixed with STING-CTD (e.g., mouse STING-CTD or human STING-CTD) with or without the presence of a compound of the present application. Changes in the read-out signal are measured (e.g., by fluorescence anisotropy) to determine the binding of the compound to STING-CTD.
(§2) Fluorescein labeled c-di-GMP was mixed with mSTING-CTD with or without the presence of a compound of the present application in PBS in black 384-well plates (10 μL per well). The fluorescence anisotropy was determined on a PerkinElmer EnVisions multi-mode plate reader. The plate can be read immediately after mixing the reagents or after a few hours without change of signals.
• 1) 6×his-sumo-mSTING (Supplier: HDB) • 2) 2′-Fluo-AHC-c-di GMP (BIOLOG #F009) • 3) 23-cGAMP (BIOLOG #C161) • 4) DMXAA (InvivoGen #tlrl-dmx) • 5) DMSO (Sigma. #D5879-100 mL) • 6) 10×PBS(HDB #MCP-020) • 7) Assay plate, 384-well black plate, solid black bottom (Greiner #784076) • 8) Compound dilution intermediate plate, 384 LDV plate (Labcyte #LP-0200) • 9) Liquid handler, ECHO550 (Labcyte) • 10) Liquid handler, Bravo (Aglient) • 11) Reader, Envision (PerkinElmer) • 12) Centrifuge (Eppendorf) • 13) Multichannel Pipette (Raining) • 14) 10 ml Reservoir (Corning) • 15) 15 ml centrifuge tube (Corning) • 16) Adhesive Plate seals (BioRad) Compound Preparation • a) Containers of each compound were centrifuged at 1000 rpm for 5 min. • b) Compounds were dissolved in DMSO at 30 mM. • c) Compounds were sufficiently vortexed, and centrifuged at 1000 rpm for 1 min. • d) 16 uL of the compound solution was transferred into a LDV Compound Plate. • e) 2-fold serial dilutions of the compound solution were made with DMSO, and 14 concentrations were made in the 384-well LDV Compound Plate. • f) The LDV plate was spun at 1000 rpm for 60 sec and sealed with foil (stored at −20° C. if not used immediately). • g) 335 nL of each compound from the LDV Compound Plate was transferred to Assay Plate (ECHO550). Probe Preparation • a) 200 uM probe stock (2′-Fluo-AHC-c-diGMP) was diluted by dd2O to 6 uM working concentration. • b) 10-12 uL 6 uM working solution of probe was transferred into the LDV plate. • c) 50 nL per well 6 uM working solution of probe was transferred from the LDV plate to each well of the empty Assay Plate (Greiner 784076) by ECHO550 Buffer mode. • d) Probe final concentration was 30 nM when assay system was 10 uL. • e) The Assay Plate was spun at 1000 rpm for 1 min. Compound Addition • a) After the LDV Compound Plate was prepared, 100 nL compound (ECHO550 DMSO mode) was transferred from the LDV Compound Plate into the Assay Plate (Greiner 784076) containing 50 nL probe in each well according to the Assay Plate layout. • b) DMSO final concentration was 1% when assay system was 10 uL. • c) The Assay Plate was spun at 1000 rpm for 1 min. Protein Addition • a) Aliquot of 6×his-sumo-mSTING protein was thawed on ice, briefly to generate uniform solution. • b) 66 uM stock protein was diluted in 1×PBS assay buffer to generate 8 uM final solutions. • c) For test compound and ZPE wells, 10 μL per well of 8 uM protein solutions was added into the Assay Plate containing both the probe and test compounds or DMSO using multichannel pipette. • d) For HPE wells, 10 µL/well of 1×PBS assay buffer instead of protein was added into the Assay Plate containing both the probe and DMSO using multichannel pipette. • e) The Assay Plate was spun at 1000 rpm for 1 min. • f) The Assay Plate was incubated at r.t. for 10-20 min.
(§3) The EnVision plate reader was used to record the FA value of each well immediately after mixing the reagents or after a few hours without change of signals.
(§4) The raw data and calculated data (Fluorescence anisotropy (FA)) was exported from the EnVision reader. […]

[2] = target: hSTING-CTD (Homo sapiens (Human), UniProt Q86WV6); experiment: Human STING protein FP competition concentration response assay; format: binding
Description: as §1
as §2, with “c-di-GMP, a validated STING ligand,” for “c-di-GMP”, “recombinant hSTING-CTD in a homogenous assay format” for “mSTING-CTD”, “application (titrated)” for “application”
• 1) hSTING (Supplier: HDB) • 2) 2′-Fluo-AHC-c-di GMP (BIOLOG #F009) • 3) 2′3′-cGAMP (BIOLOG #C161) • 4) DMXAA (InvivoGen #tlrl-dmx) • 5) DMSO (Sigma, #D5879-100 mL) • 6) 10×PBS(HDB #MCP-020) • 7) Assay plate, 384-well black plate, solid black bottom (Greiner #784076) • 8) Compound dilution intermediate plate, 384 LDV plate (Labcyte #LP-0200) • 9) Liquid handler, ECHO550 (Labcyte) • 10) Liquid handler, Bravo (Aglient) • 11) Reader, Envision (PerkinElmer) • 12) Centrifuge (Eppendorf) • 13) Multichannel Pipette (Raining) • 14) 10 ml Reservoir (Corning) • 15) 15 ml centrifuge tube (Corning) • 16) Adhesive Plate seals (BioRad) Compound Preparation • a) Containers of each compound were centrifuged at 1000 rpm for 5 min. • b) Compounds were dissolved in DMSO at 30 mM. • c) Compounds were sufficiently vortexed, and centrifuged at 1000 rpm for 1 min. • d) 16 uL of the compound solution was transferred into a LDV Compound Plate. • e) 2-fold serial dilutions of the compound solution were made with DMSO, and 14 concentrations were made in the 384-well LDV Compound Plate. • f) The LDV plate was spun at 1000 rpm for 60 sec and sealed with foil (stored at −20° C. if not used immediately). • g) 335 nL of each compound from the LDV Compound Plate was transferred to Assay Plate (ECHO550). Probe Preparation • a) 200 uM probe stock (2′-Fluo-AHC-c-diGMP) was diluted by ddH2O to 6 uM working concentration. • b) 10-12 uL 6 uM working solution of probe was transferred into the LDV plate. • c) 50 nL per well 6 uM working solution of probe was transferred from the LDV plate to each well of the empty Assay Plate (Greiner 784076) by ECHO550 Buffer mode. • d) Probe final concentration was 30 nM when assay system was 10 uL. • e) The Assay Plate was spun at 1000 rpm for 1 min. Compound Addition • a) After the LDV Compound Plate was prepared, 335 nL compound (ECHO550 DMSO mode) was transferred from the LDV Compound Plate into the Assay Plate (Greiner 784076) containing 50 nL probe in each well according to the Assay Plate layout. • b) DMSO final concentration was 3.35% when assay system was 10 uL. • c) The Assay Plate was spun at 1000 rpm for 1 min. Protein Addition • a) Aliquot of hSTING protein was thawed on ice, briefly to generate uniform solution. • b) 55 uM stock protein was diluted in 1×PBS assay buffer to generate 10 uM final solutions. • c) For test compound and ZPE wells, 10 μL per well of 10 uM protein solutions was added into the Assay Plate containing both the probe and test compounds or DMSO using multichannel pipette. • d) For HPE wells, 10 μL/well of 1×PBS assay buffer instead of protein was added into the Assay Plate containing both the probe and DMSO using multichannel pipette. • e) The Assay Plate was spun at 1000 rpm for Imin. • f) The Assay Plate was incubated at r.t. for 10-20 min.
as §3, §4

Chain of mSTING-CTD (Q3TBT3 134-378): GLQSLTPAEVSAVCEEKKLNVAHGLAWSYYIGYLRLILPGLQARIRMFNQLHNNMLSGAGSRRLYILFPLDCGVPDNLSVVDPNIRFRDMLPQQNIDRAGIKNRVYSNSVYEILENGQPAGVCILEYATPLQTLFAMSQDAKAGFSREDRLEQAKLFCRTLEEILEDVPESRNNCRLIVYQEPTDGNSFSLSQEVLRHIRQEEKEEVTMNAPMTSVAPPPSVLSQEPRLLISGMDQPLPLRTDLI
Chain of hSTING-CTD (Q86WV6 135-379): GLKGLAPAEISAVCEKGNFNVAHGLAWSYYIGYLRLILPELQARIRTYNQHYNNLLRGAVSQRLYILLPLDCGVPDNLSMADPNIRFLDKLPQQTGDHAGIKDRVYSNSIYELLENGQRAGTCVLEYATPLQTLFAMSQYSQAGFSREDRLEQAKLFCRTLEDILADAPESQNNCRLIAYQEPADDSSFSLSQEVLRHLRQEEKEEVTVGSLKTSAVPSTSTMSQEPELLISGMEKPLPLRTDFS

Compound | IC50 [1] [µM] | IC50 [2] [µM]
Cc1cccc2c(=O)c3ccccc3n(CC(=O)O)c12 [Compound 7] | 10 to 50 | > 1000
O=C(O)Cn1c2ccccc2c(=O)c2cccc(Cl)c21 [Compound 8] | 10 to 50 | > 1000
O=C(O)Cn1c2ccccc2c(=O)c2ccc3c(c21)CCCC3 [Compound 9] | < 10 | 500 to 1000
Cc1ccc2c(c1)c(=O)c1ccccc1n2CC(=O)O [Compound 10] | 10 to 50 | > 1000
Cc1ccc2c(=O)c3cccc(C)c3n(CC(=O)O)c2c1 [Compound 11] | < 10 | 500 to 1000
Cc1ccc2c(=O)c3cccc(Cl)c3n(CC(=O)O)c2c1 [Compound 12] | < 10 | 500 to 1000
Cc1ccc2c(=O)c3ccc(C)cc3n(CC(=O)O)c2c1 [Compound 15] | 10 to 50 | > 1000
Cc1ccc2c(=O)c3ccc(Cl)cc3n(CC(=O)O)c2c1 [Compound 17] | 10 to 50 | 500 to 1000
Cc1ccc2c(=O)c3ccccc3n(CC(=O)O)c2c1Cl [Compound 19] | 10 to 50 | > 1000
O=C(O)Cn1c2ccccc2c(=O)c2cc(Br)ccc21 [Compound 21] | > 100 | –
O=C(O)Cn1c2ccccc2c(=O)c2cc(C#Cc3ccccc3)ccc21 [Compound 22] | 10 to 50 | 500 to 1000
O=C(O)Cn1c2ccccc2c(=O)c2cc(CCc3ccccc3)ccc21 [Compound 23] | 10 to 50 | 100 to 500
O=C(O)Cn1c2ccccc2c(=O)c2ccc(C#Cc3ccccc3)cc21 [Compound 25] | 10 to 50 | –
O=C(O)Cn1c2ccccc2c(=O)c2ccc(CCc3ccccc3)cc21 [Compound 26] | < 10 | 500 to 1000
Cc1c(CCc2ccccc2)ccc2c(=O)c3ccccc3n(CC(=O)O)c12 [Compound 27] | 50 to 100 | > 1000
Cc1c(C2=CCCCC2)ccc2c(=O)c3ccccc3n(CC(=O)O)c12 [Compound 28] | 10 to 50 | 500 to 1000
Cc1ccc2c(=O)c3ccc(Cl)c(Cl)c3n(CC(=O)O)c2c1 [Compound 29] | 10 to 50 | 100 to 500
COc1cccc2c1c(=O)c1ccc(C)cc1n2CC(=O)O [Compound 32] | > 100 | –

Compound | IC50 [1] [µM] | IC50 [2] [µM]
Cc1ccc2c(=O)c3ccc(F)cc3n(CC(=O)O)c2c1 [Compound 33] | 10 to 50 | –
COc1ccc2c(=O)c3ccc(C)cc3n(CC(=O)O)c2c1 [Compound 34] | 10 to 50 | > 1000
COc1ccc2c(=O)c3c(C)cccc3n(CC(=O)O)c2c1 [Compound 35] | 10 to 50 | –
Cc1ccc2c(=O)c3c(F)cccc3n(CC(=O)O)c2c1 [Compound 36] | 10 to 50 | –
CC(C)(C)c1ccc2c(=O)c3ccc(Cl)c(Cl)c3n(CC(=O)O)c2c1 [Compound 47] | 10 to 50 | < 100
Cc1ccc2c(=O)c3ccc(Br)cc3n(CC(=O)O)c2c1 [Compound 53] | 10 to 50 | 100 to 500
O=C(O)Cn1c2cc(NC3CCCCC3)ccc2c(=O)c2ccc(Cl)c(Cl)c21 [Compound 59] | 10 to 50 | < 100
O=C(O)Cn1c2cc(N3CCOCC3)ccc2c(=O)c2ccc(Cl)c(Cl)c21 [Compound 60] | 10 to 50 | < 100
O=C(O)Cn1c2cc(N3CCCCC3)ccc2c(=O)c2ccc(Cl)c(Cl)c21 [Compound 61] | 10 to 50 | < 100
CC1(C)CCC=C(c2ccc3c(c2)c(=O)c2ccc(Cl)c(Cl)c2n3CC(=O)O)C1 [Compound 67] | > 100 | 500 to 1000
Cc1cccc(-c2ccc3c(c2)c(=O)c2ccc(Cl)c(Cl)c2n3CC(=O)O)c1 [Compound 68] | 10 to 50 | < 100
CN(C)c1ccc2c(=O)c3ccc(Cl)c(Cl)c3n(CC(=O)O)c2c1 [Compound 71] | 10 to 50 | 100 to 500
Cc1ccc2c(=O)c3cc(CCc4ccccc4C)ccc3n(CC(=O)O)c2c1 [Compound 75] | > 100 | 100 to 500
CC(C)c1ccc2c(=O)c3ccc(Cl)c(Cl)c3n(CC(=O)O)c2c1 [Compound 81] | 10 to 50 | < 100
CCc1ccc2c(=O)c3ccc(Cl)c(Cl)c3n(CC(=O)O)c2c1 [Compound 82] | 50 to 100 | 100 to 500
Cc1cc2c(=O)c3ccc(Cl)c(Cl)c3n(CC(=O)O)c2cc1C [Compound 94] | 50 to 100 | 100 to 500
Cc1c(Cl)ccc2c(=O)c3ccccc3n(CC(=O)O)c12 [Compound 98] | 10 to 50 | 500 to 1000
Cc1ccc2c(=O)c3ccccc3n(CC(=O)O)c2c1C [Compound 99] | 50 to 100 | 500 to 1000
